Assay results as given in PMC7765489, “Structural Characterization of Glycerol Kinase from the Thermophilic Fungus Chaetomium thermophilum” (International Journal of Molecular Sciences, 2020).
Values belong to the molecule of their own block, whether it stands above or below them.

Tests used:
CtGK [1] = molecular target: T1, CtGK (Thermochaetoides thermophila, UniProt G0SAG9); test: thermal shift assay, Sypro Orange; assay type: binding; conditions: 50 mM Tris, 200 mM NaCl, pH 8.0
T1 construct: gene CTHT_0042250; residues 67-590 (models start at residue 65), N-terminal His-tag cut by TEV, codon-optimized gene, E. coli BL21(DE3), dimer
T1 sequence (G0SAG9 67-590): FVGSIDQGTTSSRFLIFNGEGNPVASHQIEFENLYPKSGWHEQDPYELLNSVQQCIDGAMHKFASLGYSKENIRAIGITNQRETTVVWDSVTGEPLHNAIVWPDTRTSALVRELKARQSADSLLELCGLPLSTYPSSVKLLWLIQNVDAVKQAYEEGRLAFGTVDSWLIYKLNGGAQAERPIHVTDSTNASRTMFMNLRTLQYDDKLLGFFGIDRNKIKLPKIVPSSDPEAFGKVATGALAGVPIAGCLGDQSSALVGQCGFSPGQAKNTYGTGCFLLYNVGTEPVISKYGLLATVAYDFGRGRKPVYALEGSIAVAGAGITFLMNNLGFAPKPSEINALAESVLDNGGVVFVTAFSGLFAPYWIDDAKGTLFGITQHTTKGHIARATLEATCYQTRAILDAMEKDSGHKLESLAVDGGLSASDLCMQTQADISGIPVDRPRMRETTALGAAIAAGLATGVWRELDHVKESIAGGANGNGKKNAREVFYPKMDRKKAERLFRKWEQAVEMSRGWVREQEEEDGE

CtGK [2] = molecular target: T1, CtGK; test: X-ray crystal structure (glycerol soak); assay type: binding; conditions: 20-25% glycerol as cryoprotectant; 0.2 M CaCl2, PEG 3350; active site in N-terminal domain
purified protein = substrate: Nc1ncnc2c1ncn2[C@@H]1O[C@H](COP(=O)(O)OP(=O)(O)OP(=O)(O)O)[C@@H](O)[C@H]1O; test: purified protein; assay type: biochemical, Thermochaetoides thermophila; conditions: 1 mM glycerol, 5 mM MgCl2, 50 mM KCl, 250 mM sucrose, 20 mM Tris-HCl pH 7.4, 37 °C, substrate inhibition at high ATP
[3] = molecular target: the molecule itself; test: SEC-MALS; XBridge BEH200 7.8 x 300 column, 50 mM Tris pH 7.8, 200 mM NaCl, 1 mL/min

Tm (CtGK [1]; 0.5 mM ADP, no glycerol): 55.0 ± 1.11 °C
Molecule: Nc1ncnc2c1ncn2[C@@H]1O[C@H](COP(=O)(O)OP(=O)(O)O)[C@@H](O)[C@H]1O [ADP]

Tm (CtGK [1]; 0.5 mM ATP, no glycerol): 54.5 ± 0.00 °C
Molecule: Nc1ncnc2c1ncn2[C@@H]1O[C@H](COP(=O)(O)OP(=O)(O)OP(=O)(O)O)[C@@H](O)[C@H]1O [ATP]

Molecule: O=P(O)(O)OC[C@H]1OC(O)(COP(=O)(O)O)[C@@H](O)[C@@H]1O (stereo partly shown) [fructose-1,6-bisphosphate]
Tm (CtGK [1]; 0.5 mM FBP, with GOL and ATP, site unidentified): FBP prevents the protein destabilization by GOL and ATP (Figure S1B)

Tm (CtGK [1]; 5% glycerol, no nucleotide): 53.88 ± 0.48 °C
Molecule: OCC(O)CO [glycerol]
X-ray crystal structure (glycerol soak) (CtGK [2]): we were able to solve the enzyme-substrate complex with a clear electron density

B1: glycerol kinase from Chaetomium thermophilum (enzyme, UniProt G0SAG9 67-590, looked up)
chain: FVGSIDQGTTSSRFLIFNGEGNPVASHQIEFENLYPKSGWHEQDPYELLNSVQQCIDGAMHKFASLGYSKENIRAIGITNQRETTVVWDSVTGEPLHNAIVWPDTRTSALVRELKARQSADSLLELCGLPLSTYPSSVKLLWLIQNVDAVKQAYEEGRLAFGTVDSWLIYKLNGGAQAERPIHVTDSTNASRTMFMNLRTLQYDDKLLGFFGIDRNKIKLPKIVPSSDPEAFGKVATGALAGVPIAGCLGDQSSALVGQCGFSPGQAKNTYGTGCFLLYNVGTEPVISKYGLLATVAYDFGRGRKPVYALEGSIAVAGAGITFLMNNLGFAPKPSEINALAESVLDNGGVVFVTAFSGLFAPYWIDDAKGTLFGITQHTTKGHIARATLEATCYQTRAILDAMEKDSGHKLESLAVDGGLSASDLCMQTQADISGIPVDRPRMRETTALGAAIAAGLATGVWRELDHVKESIAGGANGNGKKNAREVFYPKMDRKKAERLFRKWEQAVEMSRGWVREQEEEDGE
notes: glycerol kinase, Chaetomium thermophilum, UniProt G0SAG9, residues 67-590; codon-optimised synthetic gene in pET24d with N-terminal His-Tag and TEV site; The crystal models begin at residue 65 (67 for chain B) although the construct is stated as 67-590; also called CtGK; GK; source: E. coli BL21 (DE3), purified (Ni-Sepharose, TEV cleavage, second Ni-Sepharose, gel filtration on Superdex 75); not …
Km (purified protein): 52 ± 9 µM
stoichiometry N [3]: 2
